# US5154930A, “Pharmacological agent-lipid solution preparation” (The Liposome Company, Inc., priority 1988, dated 1992)
# Experiments:
# [1] = Salting in: solubility in absolute ethanol with and without egg phosphatidylcholine; format: physicochemical; conditions: for salting in / form of apparent solubility / increase in solubility or apparent solubility (co-solubilizing or salting-in): lipid in lipid solvent
# Experimental: To determine whether phospholipids can increase the solubility or apparent solubility of a pharmacological agent such as salicylic acid acetate, both drug and lipid were co-solubilized in a lipid solvent such as absolute ethanol (USP). Five ml of this lipid solvent was able to dissolve about a maximum of 1 gr. salicylic acid acetate. A lipid such as egg phosphatidylcholine was completely dissolved in 5 ml of ethanol in a series of test tubes and to this solution crystals of the test pharmacological agent salicylic acid acetate were added gradually and dissolved. […] Any convenient temperature and pressur may be used for this procedure that will dot adversely affect the pharmacological agent or boil the lipid solvent.
# Five ml of absolute ethanol was able to dissolve maximum 1 gr. salicylic acid acetate. Egg phosphatidylcholine (Hepar) 1.5 gm was completely dissolved in 5 ml of ethanol in a series of test tubes and to this solution crystals of salicylic acid acetate were added gradually and dissolved. […] To accelerate the dissolving process all test tubes containing crystals of salicylic acid acetate and lipid solvent were agitated gently in a water bath of 40° C. and cooled to about 22.5° C.+/- about 2.5° C. after crystals were completely dissolved.
# [2] = Stability of agent to water (hydrolysis) in ethanol; format: physicochemical; conditions: water even at about 5% in ethanol
increase in solubility of drug (salting in) ([1]; egg phosphatidylcholine ethanol versus ethanol),SMILES,salting in / form of apparent solubility [1],salting in / form of apparent solubility ([1]; listed as Amphoteracin B),increase in solubility or apparent solubility (co-solubilizing or salting-in) [1],maximum amount dissolved in absolute ethanol [1],tolerance of water (hydrolysis) [2]
,C[C@@H]1[C@H](O)[C@@H](C)/C=C/C=C/C=C/C=C/C=C/C=C/C=C/[C@H](O[C@@H]2O[C@H](C)[C@@H](O)[C@H](N)[C@@H]2O)C[C@@H]2O[C@](O)(C[C@@H](O)C[C@@H](O)[C@H](O)CC[C@@H](O)C[C@@H](O)CC(=O)O[C@H]1C)C[C@H](O)[C@H]2C(=O)O [amphotericin B],in the form of a complex with dissolved lipid rather than truly solubilized,similarly salted in but appears to do so in the form of complexes with lipid rather than simple solubilizing,,,
about 50%,COc1ccc2c(c1)c(CC(=O)O)c(C)n2C(=O)c1ccc(Cl)cc1 [indomethacin],,,≤ 50%,,
,CC(=O)Oc1ccccc1C(=O)O [salicylic acid acetate],,,≤ 50%,~1 gr.,do not tolerate the presence of water even at about 5% in ethanol
